pIC50: −log10 of the molar value.
Tests used:
human TLR9 = molecular target: T1, human TLR9 (Homo sapiens, UniProt Q9NR96); test: TLR9 inhibition reporter assay (HEK-Blue cells, SEAP reporter, ODN2006 stimulation); assay type: cell-based; conditions: HEK-Blue cells overexpressing human TLR9, ODN2006 5 nM
T1 construct: host or cells: HEK-Blue cells
T1 sequence (Q9NR96 26-1032): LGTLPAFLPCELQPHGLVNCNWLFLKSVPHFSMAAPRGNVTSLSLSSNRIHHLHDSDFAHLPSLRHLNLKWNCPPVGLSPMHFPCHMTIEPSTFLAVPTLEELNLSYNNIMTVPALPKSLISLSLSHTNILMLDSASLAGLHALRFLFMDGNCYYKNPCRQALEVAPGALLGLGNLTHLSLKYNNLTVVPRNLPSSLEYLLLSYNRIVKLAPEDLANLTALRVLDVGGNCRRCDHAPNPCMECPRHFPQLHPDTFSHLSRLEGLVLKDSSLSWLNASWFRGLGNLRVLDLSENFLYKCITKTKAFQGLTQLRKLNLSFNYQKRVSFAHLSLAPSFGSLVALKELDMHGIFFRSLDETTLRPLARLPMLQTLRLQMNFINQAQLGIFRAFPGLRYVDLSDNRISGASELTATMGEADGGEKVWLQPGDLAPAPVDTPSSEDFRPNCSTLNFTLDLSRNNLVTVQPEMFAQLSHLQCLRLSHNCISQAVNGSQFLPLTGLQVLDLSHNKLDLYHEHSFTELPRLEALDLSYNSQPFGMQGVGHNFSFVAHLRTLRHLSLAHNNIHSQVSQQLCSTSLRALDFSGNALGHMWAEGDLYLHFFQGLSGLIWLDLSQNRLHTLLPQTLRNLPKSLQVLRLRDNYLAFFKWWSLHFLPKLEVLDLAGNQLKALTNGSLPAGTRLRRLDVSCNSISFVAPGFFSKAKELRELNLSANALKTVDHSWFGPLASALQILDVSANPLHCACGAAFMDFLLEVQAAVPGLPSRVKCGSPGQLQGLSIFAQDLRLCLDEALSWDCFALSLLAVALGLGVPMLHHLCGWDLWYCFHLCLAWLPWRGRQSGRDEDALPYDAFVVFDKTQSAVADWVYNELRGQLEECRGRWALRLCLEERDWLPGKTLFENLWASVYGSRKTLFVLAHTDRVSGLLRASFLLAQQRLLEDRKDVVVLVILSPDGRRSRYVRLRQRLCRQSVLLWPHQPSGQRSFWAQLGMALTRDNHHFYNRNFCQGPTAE
How it was run: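 Compound treatment: 30 min, RT, 0.05 nM–50 μM final. Agonist: TLR7 gardiquimod 7.5 μM; TLR8 R848 15.9 μM; TLR9 ODN2006 5 nM. Incubation 22 h, 37 °C, 5% CO2. Readout SEAP, HEK-Blue Detection.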

human TLR7 = molecular target: T2, human TLR7 (Homo sapiens, UniProt Q9NYK1); test: TLR7 inhibition reporter assay (HEK-Blue cells, SEAP reporter, gardiquimod stimulation); assay type: cell-based; conditions: HEK-Blue cells overexpressing human TLR7, gardiquimod 7.5 μM
T2 construct: host or cells: HEK-Blue cells
T2 sequence (Q9NYK1 27-1049): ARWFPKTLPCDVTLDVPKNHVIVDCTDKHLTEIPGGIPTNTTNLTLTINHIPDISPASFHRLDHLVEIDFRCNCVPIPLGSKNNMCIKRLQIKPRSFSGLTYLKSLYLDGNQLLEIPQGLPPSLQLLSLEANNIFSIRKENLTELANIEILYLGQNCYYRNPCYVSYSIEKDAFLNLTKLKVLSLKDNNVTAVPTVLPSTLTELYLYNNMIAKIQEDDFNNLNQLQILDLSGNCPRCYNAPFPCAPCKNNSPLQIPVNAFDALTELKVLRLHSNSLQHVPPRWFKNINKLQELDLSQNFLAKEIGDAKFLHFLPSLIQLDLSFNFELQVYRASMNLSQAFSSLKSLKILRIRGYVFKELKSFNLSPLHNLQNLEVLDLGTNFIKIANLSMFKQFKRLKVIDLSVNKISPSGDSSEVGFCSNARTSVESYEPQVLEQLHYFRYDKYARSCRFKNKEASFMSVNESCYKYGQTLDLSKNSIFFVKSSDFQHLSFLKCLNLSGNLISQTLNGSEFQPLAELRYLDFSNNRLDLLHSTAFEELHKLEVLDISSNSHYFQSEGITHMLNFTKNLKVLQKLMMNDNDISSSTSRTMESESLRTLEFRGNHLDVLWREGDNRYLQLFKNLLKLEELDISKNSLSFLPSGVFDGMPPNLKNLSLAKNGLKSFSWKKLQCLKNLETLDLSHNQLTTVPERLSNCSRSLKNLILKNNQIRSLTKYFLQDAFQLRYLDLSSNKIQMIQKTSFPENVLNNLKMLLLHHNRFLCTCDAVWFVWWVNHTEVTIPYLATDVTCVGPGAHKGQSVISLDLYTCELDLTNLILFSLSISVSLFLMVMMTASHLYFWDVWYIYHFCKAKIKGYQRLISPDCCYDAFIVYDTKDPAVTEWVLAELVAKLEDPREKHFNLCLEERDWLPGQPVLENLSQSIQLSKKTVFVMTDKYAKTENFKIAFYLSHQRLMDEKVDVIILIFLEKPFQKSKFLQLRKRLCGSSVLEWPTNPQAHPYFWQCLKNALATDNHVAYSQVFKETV
How it was run: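 22 h, 37° C, 5% CO2 incubation; compounds 0.05 nM-50 μM final; TLR7 cells 15000/well, TLR8 20,000/well. Readout: SEAP via HEK-Blue Detection medium. % inhibition = signal reduction versus agonist + DMSO wells, referenced to known inhibitor.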

Row | Compound | pIC50 (human TLR9) | pIC50 (human TLR7)
1 | CCOC(=O)N1CCC(N2CCC(c3ccc4[nH]c(-c5ccc(OC)c(OC)c5)c(C)c4c3)CC2)C1 (stereo not drawn) [Example 13, ethyl 3-(4-(2-(3,4-dimethoxyphenyl)-3-methyl-1H-indol-5-yl)piperidin-1-yl) pyrrolidine-1-carboxylate] | 5.97 | ≤ 4.30
2 | COc1ccc(-c2[nH]c3ccc(C4CCN(Cc5cccc(C(F)(F)F)c5)CC4)cc3c2C(C)C)cc1OC [Example 269, 2-(3,4-dimethoxyphenyl)-3-isopropyl-5-(1-(3-(trifluoromethyl)benzyl)piperidin-4-yl)-1H-indole] | 4.73 | 5.57
3 | CCN(C)CCN1CCC(c2ccc3[nH]c(-c4ccc(OC)c(OC)c4)c(C)c3c2)CC1 [Example 111, 2-(4-(2-(3,4-dimethoxyphenyl)-3-methyl-1H-indol-5-yl)piperidin-1-yl)-N-ethyl-N-methylethan-1-amine] | 5.82 | 6.41
4 | COc1ccc(-c2[nH]c3ccc(C4CCN(Cc5ccc(N6CCCC6)cc5)CC4)cc3c2C)cc1OC [Example 46, 2-(3,4-dimethoxyphenyl)-3-methyl-5-(1-(4-(pyrrolidin-1-yl)benzyl)piperidin-4-yl)-1H-indole] | 6.13 | 5.48
5 | COc1ccc(-c2[nH]c3ccc(C4CCN(Cc5nccs5)CC4)cc3c2C(C)C)cc1OC [Example 261, 2-((4-(2-(3,4-dimethoxyphenyl)-3-isopropyl-1H-indol-5-yl)piperidin-1-yl)methyl)thiazole] | 5.24 | 6.74
6 | COc1ccc(-c2[nH]c3ccc(C4CCN(Cc5ccc(-n6ccnc6)cc5)CC4)cc3c2C)cc1OC [Example 39, 5-(1-(4-(1H-imidazol-1-yl)benzyl)piperidin-4-yl)-2-(3,4-dimethoxyphenyl)-3-methyl-1H-indole] | 6.60 | 5.70
7 | COc1ccc(-c2[nH]c3ccc(C4CCN(C[C@H]5CCCN5)CC4)cc3c2C)cc1OC [Example 108, (R)-2-(3,4-dimethoxyphenyl)-3-methyl-5-(1-(pyrrolidin-2-ylmethyl)piperidin-4-yl)-1H-indole] | 6.06 | 5.45
8 | CCOC(=O)C1CC1CN1CCC(N2CCC(c3ccc4[nH]c(-c5ccc(OC)c(OC)c5)c(C)c4c3)CC2)CC1 (stereo not drawn) [Example 60, ethyl 2-((4-(2-(3,4-dimethoxyphenyl)-3-methyl-1H-indol-5-yl)-[1,4′-bipiperidin]-1′-yl)methyl)cyclopropane-1-carboxylate] | 6.95 | 6.57
9 | CCc1c(-c2ccc(OC)c(OC)c2)[nH]c2ccc(C3CCN(C(=O)CN4CCCC(CO)C4)CC3)cc12 (stereo not drawn) [Example 169, 1-(4-(2-(3,4-dimethoxyphenyl)-3-ethyl-1H-indol-5-yl)piperidin-1-yl)-2-(3-(hydroxymethyl)piperidin-1-yl)ethan-1-one] | 5.68 | 6.84
10 | CCc1c(-c2ccc(OC)c(OC)c2)[nH]c2ccc(C3CCN(C(=O)CN4CCC(N5CCCCC5)CC4)CC3)cc12 [Example 158, 2-([1,4′-bipiperidin]-1′-yl)-1-(4-(2-(3,4-dimethoxyphenyl)-3-ethyl-1H-indol-5-yl)piperidin-1-yl)ethan-1-one] | 6.17 | 6.66
11 | COc1ccc(-c2[nH]c3ccc(C4CCN(Cc5cccc6cccnc56)CC4)cc3c2C)cc1OC [Example 36, 8-((4-(2-(3,4-dimethoxyphenyl)-3-methyl-1H-indol-5-yl)piperidin-1-yl)methyl)quinoline] | 6.46 | 5.94
12 | COc1ccc(-c2[nH]c3ccc(C4CCN(C5CCN(C6CCCC(C(F)(F)F)C6)CC5)CC4)cc3c2C)cc1OC (stereo not drawn) [Example 79] | 6.91 | 5.63
13 | COc1ccc(-c2[nH]c3ccc(C4CCN(C5CCN(c6ccccc6)C5)CC4)cc3c2C)cc1OC (stereo not drawn) [Example 8, 2-(3,4-dimethoxyphenyl)-3-methyl-5-(1-(1-phenylpyrrolidin-3-yl)piperidin-4-yl)-1H-indole] | ≤ 4.30 | ≤ 4.30
14 | CNCCCN1CCC(c2ccc3[nH]c(-c4ccc(OC)c(OC)c4)c(C)c3c2)CC1 [Example 102, 3-(4-(2-(3,4-dimethoxyphenyl)-3-methyl-1H-indol-5-yl)piperidin-1-yl)-N-methylpropan-1-amine] | 6.42 | 6.25
15 | CCCN1CCC(N2CCC(c3ccc4[nH]c(-c5ccc(OC)c(OC)c5)c(C)c4c3)CC2)CC1 [Example 63, 2-(3,4-dimethoxyphenyl)-3-methyl-5-(1′-propyl-[1,4′-bipiperidin]-4-yl)-1H-indole] | 6.88 | 6.49
16 | COc1ccc(-c2[nH]c3ccc(C4CCN(C5CCCNC5)CC4)cc3c2C)cc1OC (stereo not drawn) [Example 106, 5-([1,3′-bipiperidin]-4-yl)-2-(3,4-dimethoxyphenyl)-3-methyl-1H-indole] | 6.51 | 6.04
17 | CCc1c(-c2ccc(OC)c(OC)c2)[nH]c2ccc(C3CCN(C(=O)CNC(CO)CO)CC3)cc12 [Example 165, 2-((1,3-dihydroxypropan-2-yl)amino)-1-(4-(2-(3,4-dimethoxyphenyl)-3-ethyl-1H-indol-5-yl)piperidin-1-yl)ethan-1-one] | 5.29 | 6.97
18 | COc1ccc(-c2[nH]c3ccc(C4CCN(Cc5cc6ccccc6n5C)CC4)cc3c2C)cc1OC [Example 33, 2-(3,4-dimethoxyphenyl)-3-methyl-5-(1-((1-methyl-1H-indol-2-yl)methyl)piperidin-4-yl)-1H-indole] | 5.43 | ≤ 4.30
19 | COc1ccc(-c2[nH]c3ccc(C4CCN(Cc5ccc6cnccc6c5)CC4)cc3c2C)cc1OC [Example 31, 6-((4-(2-(3,4-dimethoxyphenyl)-3-methyl-1H-indol-5-yl)piperidin-1-yl)methyl)isoquinoline] | 6.65 | 6.46
20 | COc1ccc(-c2[nH]c3ccc(C4CCN(C(=O)CNCC(F)(F)F)CC4)cc3c2C(C)C)cc1OC [Example 221, 1-(4-(2-(3,4-dimethoxyphenyl)-3-isopropyl-1H-indol-5-yl)piperidin-1-yl)-2-((2,2,2-trifluoroethyl)amino)ethan-1-one] | ≤ 4.30 | 6.79
21 | CCc1c(-c2ccc(OC)c(OC)c2)[nH]c2ccc(C3CCN(C(=O)NC(C)C)CC3)cc12 [Example 182, 4-(2-(3,4-dimethoxyphenyl)-3-ethyl-1H-indol-5-yl)-N-isopropylpiperidine-1-carboxamide] | ≤ 4.30 | 6.21
